Literature values in US11957681B2, “Liquid dosage forms of Imatinib” (SHORLA PHARMA LTD., priority 2018, dated 2024).

How the values were obtained:
[1] = compared with Imatinib mesylate

Share of the AUC for Imatinib mesylate (circulating metabolite): about 15% | Elimination half-life (imatinib mesylate orally administered): ~40 h
Compound: Cc1ccc(NC(=O)c2ccc(CN3CCNCC3)cc2)cc1Nc1nccc(-c2cccnc2)n1 [N-desmethyl derivative]
Potency in vitro [1]: potency similar to Imatinib mesylate
